Results published in ChEMBL document CHEMBL1201862, “PubChem BioAssay data set” (2004).
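Each compound was tested at five concentrations against cells in 96-well plates for 48 hours. GI50: concentration for 50% inhibition of growth.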 The source made the active and inactive calls. Cut-off read from the data, not from the text of the source: active = GI50 up to about 1.1 µM and inactive = higher.

What was measured:
Assay in all cases: DTP human tumour cell line panel, 48 h
A498 = test system: A498
CCRF-CEM = test system: CCRF-CEM
HCC 2998 = test system: HCC 2998
HL-60 = test system: HL-60
HOP-62 = test system: HOP-62
HOP-92 = test system: HOP-92
IGROV-1 = test system: IGROV-1
LOX IMVI = test system: LOX IMVI
M14 = test system: M14
NCI-H23 = test system: NCI-H23
NCI-H460 = test system: NCI-H460
OVCAR-3 = test system: OVCAR-3
SF-268 = test system: SF-268
SK-MEL-28 = test system: SK-MEL-28
SK-MEL-2 = test system: SK-MEL-2
SK-MEL-5 = test system: SK-MEL-5
SN12C = test system: SN12C
MDA-N = test system: MDA-N
NCI/ADR-RES = test system: NCI/ADR-RES
T47D = test system: T47D

SMILES	GI50 (A498)	GI50 (CCRF-CEM)	GI50 (HCC 2998)	GI50 (HL-60)	GI50 (HOP-62)	GI50 (HOP-92)	GI50 (IGROV-1)	GI50 (LOX IMVI)	GI50 (M14)	GI50 (NCI-H23)	GI50 (NCI-H460)	GI50 (OVCAR-3)	GI50 (SF-268)	GI50 (SK-MEL-28)	GI50 (SK-MEL-2)	GI50 (SK-MEL-5)	GI50 (SN12C)	GI50 (MDA-N)	GI50 (NCI/ADR-RES)	GI50 (T47D)
N#C/C(=C\c1cc(OCc2ccccc2)c(OCc2ccccc2)cn1)C(N)=O	> 100 µM (inactive)	32.1 µM (inactive)	> 100 µM (inactive)	16 µM (inactive)	> 100 µM (inactive)	85.7 µM (inactive)	> 100 µM (inactive)	30.5 µM (inactive)	> 100 µM (inactive)	> 100 µM (inactive)	> 100 µM (inactive)	> 100 µM (inactive)	> 100 µM (inactive)	> 100 µM (inactive)	> 100 µM (inactive)	> 100 µM (inactive)	> 100 µM (inactive)			
ClC1=NSSC1(Cl)Cl	> 100 µM (inactive)	6.47 µM (inactive)	> 100 µM (inactive)	2.4 µM (inactive)	> 100 µM (inactive)	> 10 µM (inactive)	61 µM (inactive)	40.8 µM (inactive)	19.8 µM (inactive)	> 100 µM (inactive)	36.9 µM (inactive)	25.2 µM (inactive)		> 10 µM (inactive)	> 100 µM (inactive)	14.1 µM (inactive)	22.1 µM (inactive)	27.7 µM (inactive)	34.8 µM (inactive)	
Cc1csc(NC23CC4CC(CC(C4)C2)C3)[n+]1C(P(=O)([O-])O)P(=O)(O)O (configuration not stated)	> 100 µM (inactive)	> 100 µM (inactive)	> 100 µM (inactive)		> 100 µM (inactive)	> 100 µM (inactive)	> 100 µM (inactive)	> 100 µM (inactive)	> 100 µM (inactive)	> 100 µM (inactive)	> 100 µM (inactive)	> 100 µM (inactive)	> 100 µM (inactive)	> 100 µM (inactive)		> 100 µM (inactive)		> 100 µM (inactive)	> 100 µM (inactive)	
O=Cc1cn(CCCCCCCCCCCCn2cc(C=O)c3ccccc32)c2ccccc12	61 µM (inactive)	> 10 µM (inactive)	> 100 µM (inactive)	1.56 µM (inactive)	> 100 µM (inactive)	> 100 µM (inactive)	> 100 µM (inactive)	> 100 µM (inactive)	> 100 µM (inactive)	3.53 µM (inactive)	> 10 µM (inactive)	> 100 µM (inactive)	> 100 µM (inactive)	> 100 µM (inactive)	> 100 µM (inactive)	0.611 µM (active)	> 100 µM (inactive)	> 100 µM (inactive)	1.46 µM (inactive)	
O=c1[nH]nc(NCCc2ccccc2)c2nnn(Cc3ccccc3)c12		> 100 µM (inactive)	> 100 µM (inactive)	> 100 µM (inactive)	> 100 µM (inactive)			> 100 µM (inactive)	> 100 µM (inactive)	> 100 µM (inactive)	> 100 µM (inactive)	> 100 µM (inactive)	> 100 µM (inactive)	> 100 µM (inactive)	> 100 µM (inactive)	> 100 µM (inactive)	> 100 µM (inactive)		> 100 µM (inactive)	
COc1ccc(Nc2nc3ccc(C(F)(F)F)cc3nc2-c2ccccc2)cc1OC	21.3 µM (inactive)	25.1 µM (inactive)	14.6 µM (inactive)	36.1 µM (inactive)	> 100 µM (inactive)	1.08 µM (active)	60.7 µM (inactive)	16.1 µM (inactive)	55.5 µM (inactive)	32.4 µM (inactive)	16.4 µM (inactive)	54.7 µM (inactive)	92.7 µM (inactive)	> 100 µM (inactive)	57.5 µM (inactive)	35.8 µM (inactive)	38 µM (inactive)			
CC(C)c1c(O)c(O)c2c(c1O)C(=O)C(O)=C1C(C)(C)CCC[C@@]12C	3.84 µM (inactive)	3.48 µM (inactive)	3.37 µM (inactive)	2.05 µM (inactive)	8.61 µM (inactive)	1.89 µM (inactive)	3.73 µM (inactive)	4.32 µM (inactive)	5.47 µM (inactive)	2.92 µM (inactive)	3.19 µM (inactive)	3.13 µM (inactive)	4.76 µM (inactive)	5.85 µM (inactive)	3.76 µM (inactive)	2.6 µM (inactive)	3.23 µM (inactive)			3.24 µM (inactive)
CCOc1nc(-c2ccccc2)cc(-c2ccc(N3CCOCC3)cc2)c1C#N	> 100 µM (inactive)	> 100 µM (inactive)	> 100 µM (inactive)	> 100 µM (inactive)	> 100 µM (inactive)	> 100 µM (inactive)	> 100 µM (inactive)	> 100 µM (inactive)	> 100 µM (inactive)	> 100 µM (inactive)	> 100 µM (inactive)	> 100 µM (inactive)	> 100 µM (inactive)	> 100 µM (inactive)	> 100 µM (inactive)	42.5 µM (inactive)	> 100 µM (inactive)	> 100 µM (inactive)	> 100 µM (inactive)	
CN(C)CCNC(=O)c1cccc2[nH]c(-c3cccnc3)nc12	14.2 µM (inactive)	28.4 µM (inactive)	17.1 µM (inactive)	31.5 µM (inactive)	18.5 µM (inactive)	22.6 µM (inactive)	32.5 µM (inactive)	18.1 µM (inactive)	20.9 µM (inactive)	18.8 µM (inactive)	19.3 µM (inactive)	20.8 µM (inactive)	27.9 µM (inactive)	31.7 µM (inactive)	25.8 µM (inactive)	16.9 µM (inactive)	18.2 µM (inactive)			
COC(=O)/C(=N\NC(N)=S)C(C#N)c1ccccc1 (configuration not stated)	> 100 µM (inactive)	> 100 µM (inactive)	> 100 µM (inactive)	> 100 µM (inactive)	> 100 µM (inactive)	> 100 µM (inactive)	> 100 µM (inactive)	> 100 µM (inactive)	> 100 µM (inactive)	> 100 µM (inactive)	> 100 µM (inactive)	> 100 µM (inactive)	> 100 µM (inactive)	> 100 µM (inactive)	> 100 µM (inactive)	> 100 µM (inactive)	> 100 µM (inactive)			
O=C(NCCCC/N=c1/cccccc1NCCCCNC(=O)OCc1ccccc1)OCc1ccccc1	> 10 µM (inactive)	16.6 µM (inactive)	15.7 µM (inactive)	13.2 µM (inactive)	21.2 µM (inactive)	3.14 µM (inactive)	20.9 µM (inactive)	16.4 µM (inactive)	14.5 µM (inactive)	19.3 µM (inactive)	11.5 µM (inactive)	14.3 µM (inactive)	25.6 µM (inactive)	22.1 µM (inactive)	18.8 µM (inactive)	16.4 µM (inactive)	18.8 µM (inactive)			
CC(N)Cc1ccc(Cl)cc1 (configuration not stated)	> 100 µM (inactive)	61.2 µM (inactive)	> 100 µM (inactive)	37.6 µM (inactive)	> 100 µM (inactive)	50.8 µM (inactive)	42.4 µM (inactive)	> 100 µM (inactive)	> 100 µM (inactive)	39.5 µM (inactive)	50 µM (inactive)	> 100 µM (inactive)	> 100 µM (inactive)	> 100 µM (inactive)	> 100 µM (inactive)	72.1 µM (inactive)	> 100 µM (inactive)			
